# Target: T1, TBK1 (Homo sapiens, UniProt Q9UHD2)
# T1 construct: All protein kinases were of human origin and encoded full length proteins, unless indicated otherwise; His6; made in house; host or cells: insect Sf21 cells
# T1 sequence (Q9UHD2 1-729): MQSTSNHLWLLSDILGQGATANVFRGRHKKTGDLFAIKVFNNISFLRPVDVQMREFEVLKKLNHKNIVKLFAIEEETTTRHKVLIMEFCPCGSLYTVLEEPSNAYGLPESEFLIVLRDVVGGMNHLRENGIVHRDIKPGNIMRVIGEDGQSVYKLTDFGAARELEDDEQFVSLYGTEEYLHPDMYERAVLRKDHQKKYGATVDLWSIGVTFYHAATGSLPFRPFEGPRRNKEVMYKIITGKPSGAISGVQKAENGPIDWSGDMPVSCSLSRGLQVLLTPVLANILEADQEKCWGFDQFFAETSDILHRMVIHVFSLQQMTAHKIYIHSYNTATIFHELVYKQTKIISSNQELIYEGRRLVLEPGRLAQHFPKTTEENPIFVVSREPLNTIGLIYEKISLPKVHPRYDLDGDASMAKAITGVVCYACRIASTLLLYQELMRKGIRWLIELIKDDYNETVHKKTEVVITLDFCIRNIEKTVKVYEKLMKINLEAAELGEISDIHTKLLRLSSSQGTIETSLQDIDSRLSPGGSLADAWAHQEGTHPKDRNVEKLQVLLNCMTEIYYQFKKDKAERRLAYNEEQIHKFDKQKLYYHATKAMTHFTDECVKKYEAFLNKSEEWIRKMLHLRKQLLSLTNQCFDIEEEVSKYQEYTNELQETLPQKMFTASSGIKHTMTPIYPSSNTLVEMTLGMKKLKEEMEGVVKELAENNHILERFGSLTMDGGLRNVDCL
# Assay: TBK1 protein kinase assay ([γ-33P]ATP filter-plate, IC50 from 10 concentrations)
# Assay type: biochemical
# Conditions: 50 μM ATP, peptide substrate 300 μM, 30 min, 21° C.; read-out: Potency score (TBK1 IC50)
# Text: All protein kinases were of human origin and encoded full length proteins, unless indicated otherwise. They were either expressed as glutathione S-transferase (GST) fusion proteins in Escherichia Coli or as hexahistidine (His6)-tagged proteins in insect Sf21 cells. GST fusion proteins were purified by affinity chromatography on glutathione-Sepharose, and His6-tagged proteins on nickel/nitriloacetate-agarose. The procedures for expressing some of the protein kinases used herein have been detailed previously.^8,9 The following sections outline the DNA vectors synthesised and the procedures used to express and purifying protein kinases that have not been reported previously.
# The following kinases were expressed in Sf21 cells: Aurora B and Aurora C, extra-cellular signal-regulated kinase 8 (ERK8), microtubule affinity regulating kinase 3 (MARK3), protein kinase Bα[118-480][S473D], protein kinase Bβ (PKBβ[120-481][S474D], 3-phosphoinositide-dependent protein kinase-1 [52-556] (PDK1[52-556], IKKε, TBK1,
# All assays (25.5 μl) were carried out at room temperature (21° C.) and were linear with respect to time and enzyme concentration under the conditions used. Assays were performed for 30 min using Multidrop Micro reagent dispensers (Thermo Electron Corporation, Waltham, Mass. 02454, USA) in a 96-well format. The concentration of magnesium acetate in the assays was 10 mM and the [γ-33P] ATP (800 cpm/pmol) was used at 5, 20 or 50 μM as indicated, in order to be at or below the Km for ATP for each enzyme. Protein kinases assayed at 5 μM ATP were: ERK1, ERK8, PKBα, MARK3, Aurora C. Protein kinases assayed at 20 μM ATP were: JNK1, PDK1, CHK1, CHK2, CDK2 and Aurora B. Protein kinases assayed at 50 μM ATP were: MNK2, IKKepsilon and TBK1.
# The assays were initiated with MgATP, stopped by addition of 5 μl of 0.5 M orthophosphoric acid and spotted on to P81 filterplates using a unifilter harvester (PerkinElmer, Boston, Mass. 02118, USA). The IC50 values of inhibitors were determined after carrying out assays at 10 different concentrations of each compound.
# ERK1 and ERK8 were both assayed against myelin basic protein (MBP, 0.33 mg/ml). MARK3 was assayed against the peptide […] (300 μM), MNK2 against the eIF4E protein (0.5 mg/ml). PKBβ was assayed against the peptide GRPRTSSFAEGKK (30 μM). TBK1 were assayed against ([…]) (300 μM). The substrates used for other protein kinases were described previously.^8,9
# Unless stated otherwise, enzymes were diluted in 50 mM Tris/HCl pH 7.5, 0.1 mM EGTA, 1 mg/ml BSA, 0.1% (v/v) 2-mercaptoethanol and assayed in 50 mM Tris/HCl pH 7.5, 0.1 mM EGTA, 0.1% (v/v) 2-mercaptoethanol.
row,SMILES,IC50 [µM]
1,"O=C(NCCCn1ccc2cnc(Nc3cccc(CN4CCOCC4)c3)nc21)C1CCC1 [Example 52, Cyclobutanecarboxylic acid {3-[2-(3-morpholin-4-ylmethyl-phenylamino)-pyrrolo[2,3-d]pyrimidin-7-yl]-propyl}-amide]",< 0.1
2,"CN1CCc2ccc(Nc3ncc4ccn(CCCNC(=O)C5CCC5)c4n3)cc2C1 [Example 53, Cyclobutanecarboxylic acid {3-[2-(2-methyl-1,2,3,4-tetrahydro-isoquinolin-7-ylamino)-pyrrolo[2,3-d]pyrimidin-7-yl]-propyl}-amide]",< 0.1
3,"O=C(NCCCn1ccc2cnc(Nc3ccc(-c4cnco4)cc3)nc21)C1CCC1 [Example 54, Cyclobutanecarboxylic acid {3-[2-(4-oxazol-5-yl-phenylamino)-pyrrolo[2,3-d]pyrimidin-7-yl]-propyl}-amide]",< 0.1
4,"CN1CCCN(c2ccc(Nc3ncc4ccn(CCCNC(=O)C5CCC5)c4n3)cn2)CC1 [Example 55, Cyclobutanecarboxylic acid (3-{2-[6-(4-methyl-perhydro-1,4-diazepin-1-yl)-pyridin-3-ylamino]-pyrrolo[2,3-d]pyrimidin-7-yl}-propyl)-amide]",0.1 to 1

# The remaining lines, values ahead:
row,IC50 [µM],SMILES
1,< 0.1,"CN1CCC(c2ccc(Nc3ncc4ccn(CCCNC(=O)C5CCC5)c4n3)cc2)CC1 [Example 56, Cyclobutanecarboxylic acid (3-{2-[4-(1-methyl-piperidin-4-yl)-phenylamino]-pyrrolo[2,3-d]pyrimidin-7-yl}-propyl]-amide]"
2,< 0.1,"CN1CCC(O)(c2ccc(Nc3ncc4ccn(CCCNC(=O)C5CCC5)c4n3)cc2)CC1 [Example 57, Cyclobutanecarboxylic acid (3-{2-[4-(4-hydroxy-1-methyl-piperidin-4-yl)-phenylamino]-pyrrolo[2,3-d]pyrimidin-7-yl}-propyl)amide]"
3,< 0.1,"COC1(c2ccc(Nc3ncc4ccn(CCCNC(=O)C5CCC5)c4n3)cc2)CCN(C)CC1 [Example 58, Cyclobutanecarboxylic acid (3-{2-[4-(4-methoxy-1-methyl-piperidin-4-yl)-phenylamino]-pyrrolo[2,3-d]pyrimidin-7-yl}-propyl)-amide]"
4,< 0.1,"CN1CCC(C#N)(c2ccc(Nc3ncc4ccn(CCCNC(=O)C5CCC5)c4n3)cc2)CC1 [Example 59, Cyclobutanecarboxylic acid (3-{2-[4-(4-cyano-1-methyl-piperidin-4-yl)-phenylamino]-pyrrolo[2,3-d]pyrimidin-7-yl}-propyl)-amide]"
5,< 0.1,"O=C(NCCCn1ccc2cnc(Nc3ccc(C4CCN(CCF)CC4)cc3)nc21)C1CCC1 [Example 60, Cyclobutanecarboxylic acid [3-(2-{4-[1-(2-fluoro-ethyl)-piperidin-4-yl]-phenylamino}-pyrrolo[2,3-d]pyrimidin-7-yl)-propyl]-amide]"

# — US20120088753A1, “PYRROLOPYRIMIDINES AND USED AS KINASE INHIBITORS” (MEDICAL RESEARCH COUNCIL TECHNOLOGY, priority 2009, published 2012)
